Key:
[1] = system: HUMAN RSV-A (“LONG” STRAIN); assay: RSV-A assay (CPE, ATPlite) in Hep-2 cells; type: cell-based; conditions: human respiratory syncytial virus, 120 h, MOI 0.1, 5-day incubation
Description: Methods for RSV-A Assay Hep-2 cells, (originally derived from tumors grown in irradiated-cortisonised weanling rats that had been injected with epidermoid carcinoma tissue from the larynx of a person, but later found to be indistinguishable from HeLa cells by PCR DNA analysis), were used for the culturing of genotype A, “Long” strain RSV. Flasks were inoculated with RSV and viral stocks were collected once cytopathic effect (CPE) was greater than 90%. Viral stocks in 25% sucrose media were snap frozen using liquid nitrogen to increase viral stability. Viral stock titers were quantified by tissue culture infectious dose 50% (TCID50) using 8,000 cells per well and 3-fold viral dilutions across a 96-well plate, cultured for 4 days. Viral stock titers were also quantified by a plaque forming unit assay, as described elsewhere.
Following extensive parameter testing, the final assay is run as follows: Hep-2 cells are seeded into the inner 60 wells of a 96-well plate at 8,000 cells per well in a volume of 50 μL using Growth Media (DMEM without phenol red, 1% L-Glut, 1% Penn/Strep, 1% nonessential amino acids, 10% heat-inactivated FBS). 2-fold serial dilutions of control and test compounds are added to the wells in duplicate in a total volume of 25 μL. Viral stock is then added to the wells at a multiplicity of infection (MOI) of 0.1 in a volume of 25 μL, bringing the total volume of each well to 100 μL. The MOI is calculated using the PFU/mL, or TCID50 if unavailable. Each 96-well plate has a control column of 6 wells with cells and virus but no compound (negative control, max CPE), a column with cells but no compound or virus (positive control, minimum CPE), and a column with no cells or virus or compound (background plate/reagent control). The control wells with cells but no virus are given an additional 25 μL of growth media containing an equal quantity of sucrose as those wells receiving the viral stock in order to keep consistent in media and volume conditions. The outer wells of the plate are filled with 125 μL of moat media (DMEM, 1% Penn/Strep) to act as a thermal and evaporative moat around the test wells. Following a 5-day incubation period, the plates are read using ATPlite (50 uL added per well), which quantifies the amount of ATP (a measure of cell health) present in each well. Assay plates are read using the Envision luminometer. […] EC50 ranges are as follows: A<0.2 μM; B>0.2 μM.

hMPV A2 TN/94-49 = assay: HMPV antiviral assay Method 2 (LLC-MK2 cells with CP-100-356, ATP-Lite); type: cell-based; conditions: hMPV A2 TN/94-49, LLC-MK2 cells, 4 μM CP-100-356, Method 2
Procedure: In vitro HMPV antiviral activity was evaluated using the clinical isolate A2 strain TN 94-49 (obtained from Dr. John Williams, Vanderbilt University, Tennessee) and LLC-MK2 cells (Millipore Sigma CB_85062804), an immortalized kidney epithelial cell line from Macaca mulatta. Compounds were resuspended in dimethyl sulfoxide (DMSO) at 10 mM, serially diluted and added to a 384-well source plate. Subsequently, the compounds were diluted and transferred onto 384-well assay plates using the Echo-650 automated liquid handling system (Beckman Coulter, Indiana). The test compounds were assessed in duplicate at a top concentration of 200 nM followed by 2.5-fold serial dilutions to give a total of 10 concentration points. DMSO control wells were also included on the assay plates and were either infected or not, acting as positive and negative controls. A2 TN 94-49 virus infections were performed in-suspension with LLC-MK2 cells. The cells were washed twice with PBS and removed from the cell-culture flask with 0.25% trypsin-EDTA (Thermo Fisher Scientific, MA). The trypsin-EDTA was inactivated by resuspending in 2% fetal bovine serum (FBS) and OptiMEM (ThermoFisher Scientific, MA) containing 1% antibiotic-antimycotic. Cells were pelleted by centrifuging for 5 minutes at 800 rpm, the supernatant was removed, and cells were re-suspended and washed in PBS plus 100 μg/mL CaCl2). This step was performed twice. Cells were then re-suspended in serum-free (SF)-OptiMEM containing 4 μg/mL TPCK-Trypsin (Sigma Aldrich, MO), 1% antibiotic-antimycotic (ThermoFisher Scientific, MA), 100 μg/mL CaCl2), and 4 μM of CP-100-356, a P-glycoprotein inhibitor. Cells were counted and seeded at a density of 5,000 cells/well, 12.5 μL/well. Virus infections were done at a multiplicity of infection (MOI) of 0.16 with 12.5 μL added per well. Virus infections were performed in infection media which contained SF-OptiMEM, 100 μg/mL CaCl2) and 1% antibiotic-antimycotic. HMPV viral stocks are suspended in infection media+5% glycerol, thus an equal volume of infection media+5% glycerol was added to uninfected wells to equalize the final % glycerol across all wells of the assay plate. The final concentration of TPCK-trypsin was 2 μg/mL. The final concentration of CP-100-356 was 2 μM. The assay plates were incubated at 37° C., 5% CO2 for 7 days. After 7 days incubation, 12.5 μL of ATP-Lite (PerkinElmer, MA) was added to each well and the raw luminescence values were determined using the Envision 2104 (Perkin Elmer, MA). The average of the raw luminescence values for the cells and virus only positive control wells was subtracted from all conditions tested and the percent cell health was determined by dividing these values by the average of the cells only negative control wells. EC50 values were then calculated by non-linear regression using a four-parameter curve logistic equation. The curve fit model employed was XLFit Dose Response One Site Model 200: y=(A+(B/(1+((x/C)^D)))), where A is the minimum y value, B is the maximum y value, C is the log EC50value, and D is the slope factor.

EC50 [1] [nM]	EC50 (hMPV A2 TN/94-49) [nM]	SMILES
< 200	> 200	COc1cc(C(=O)NC[C@@](O)(c2ccc(S(C)(=O)=O)cc2)c2cc3c(c(-c4cc(Cl)c(F)cc4F)n2)OC[C@]3(C)C(N)=O)cc2cn(C3CC3)nc12 [Example 482]
< 200	< 200	COc1cc(C(=O)NC[C@@](O)(c2ccccc2)c2cc3c(c(-c4cc(C(F)(F)F)c(F)cc4F)n2)OC[C@]3(C)C(N)=O)cc2oc(C3CC3)nc12 [Example 305]
< 200	< 200	COc1cc(C(=O)NC[C@@](O)(c2ccccc2)c2cc3c(c(-c4ccc(F)c(F)c4Cl)n2)OC[C@]3(C)C(N)=O)cc2cn(C3(F)CC3)nc12 [Example 370]
< 200	< 200	C[C@]1(C(N)=O)COc2c1cc([C@@](O)(CNC(=O)c1cc(OC3CC3)c3nn(C4CC4)cc3c1)c1ccccc1)nc2-c1cc(Cl)c(F)cc1F [Example 98]
< 200	< 200	COc1cc(C(=O)NC[C@@](O)(c2ccnc(N)c2)c2cc3c(c(-c4cc(Cl)c(F)cc4F)n2)OC[C@]3(C)C(N)=O)cc2cn(C3CC3)nc12 [Example 484]
< 200	> 200	COc1cc(C(=O)NC[C@@](O)(c2ccccc2)c2cc3c(c(-c4ccc(S(C)(=O)=O)cc4F)n2)OC[C@]3(C)C(N)=O)cc2cn(C3(F)CC3)nc12 [Example 371]
< 200	< 200	COc1cc(C(=O)NC[C@@](O)(c2ccccc2)c2cc3c(c(-c4cc(C(F)(F)F)c(F)cc4F)n2)OC[C@]3(C)C(N)=O)cc2cn(C3(F)CC3)nc12 [Example 303]
< 200	< 200	C[C@]1(C(N)=O)COc2c1cc([C@@](O)(CNC(=O)c1cc(OC3CC3)c3ncc(Cl)cc3c1)c1ccccc1)nc2-c1ccc(F)c(Cl)c1Cl [Example 313]
< 200	< 200	[2H]C([2H])([2H])NC(=O)[C@@]1(C)COc2c1cc([C@@](O)(CNC(=O)c1cc(OC)c3nc(C4CC4)oc3c1)c1ccccc1)nc2-c1cc(Cl)c(F)cc1F [Example 110]
–	< 200	COc1cc(C(=O)NC[C@@](O)(c2ccccc2)c2cc3c(c(-c4ccc5c(c4)OC(F)(F)O5)n2)OC[C@]3(C)C(N)=O)cc2cc(Cl)cnc12 [Example 202]
–	< 200	C[C@]1(C(N)=O)COc2c1cc([C@@](O)(CNC(=O)c1cc(OC3CC3)c3ncc(Cl)cc3c1)c1ccccc1)nc2-c1cc(C(F)(F)F)c(F)cc1F [Example 315]
–	> 200	C[C@]1(C(N)=O)COc2c1cc([C@@](O)(CNC(=O)c1ccc3nc(Cc4ccccc4)oc3c1)c1ccccc1)nc2-c1cc(Cl)c(F)cc1F [Example 230]
–	< 200	C[C@]1(C(N)=O)COc2c1cc([C@@](O)(CNC(=O)c1cc(OC3CC3)c3ncc(Cl)cc3c1)c1cccc(F)c1)nc2-c1cccc(Cl)c1Cl [Example 334]
–	> 200	COc1cc(C(=O)NC[C@@](O)(c2ccccc2)c2cc3c(c(-c4cc(Cl)c(F)cc4F)n2)OC[C@]3(C)C(N)=O)cc2c1OCCC2 [Example 93]
–	< 200	Cc1nc2c(OC3CC3)cc(C(=O)NC[C@@](O)(c3ccccc3)c3cc4c(c(-c5cc(Cl)c(F)cc5F)n3)OC[C@]4(C)C(N)=O)cc2s1 [Example 189]
–	> 200	COc1cc(C(=O)NC[C@@](O)(c2ccccc2)c2cc3c(c(-c4cc(Cl)c(F)cc4F)n2)OC[C@]3(C)C(N)=O)cc(O)c1NC(=O)C1(F)CC1 [Example 242]
–	< 200	C[C@]1(C(N)=O)COc2c1cc([C@@](O)(CNC(=O)c1cc(C(F)F)c3nn(C4CC4)cc3c1)c1ccccc1)nc2-c1cc(Cl)c(F)cc1F [Example 229]
–	< 200	COc1cc(C(=O)NC[C@](O)(c2cc3c(c(-c4cc(Cl)c(F)cc4F)n2)OC[C@]3(C)C(N)=O)c2ccn(C)n2)cc2cn(C3CC3)nc12 [Example 480]
–	< 200	COc1cc(C(=O)NC[C@@](O)(c2ccccc2)c2cc3c(c(-c4ccc5c(c4)OC(F)(F)O5)n2)OC[C@]3(C)C(N)=O)cc2oc(C3CC3)nc12 [Example 200]
–	> 200	COc1cc(C(=O)NC[C@@](O)(c2cccc(C(C)O)c2)c2cc3c(c(-c4cccc(Cl)c4Cl)n2)OC[C@]3(C)C(N)=O)cc2cn(C3CC3)nc12 (some centres unmarked) [Example 495]

— patent US12358921B2, “Antiviral heterocyclic compounds” (priority 2022, dated 2025)
